The NIST ThermoML archive (doi:10.1021/acs.jced.7b00114)
± gives the expanded uncertainty stated by the source.

Test: activity coefficient (dimensionless); of the first substance listed, at infinite dilution; xn = mol fraction of the nth substance listed
Details: Liquid, Chemical equilibration / Heterogeneous equilibration, x1 = 0

SMILES | activity coefficient (298.15 K, 100 kPa) | activity coefficient (303.15 K, 100 kPa) | activity coefficient (308.15 K, 100 kPa) | activity coefficient (313.15 K, 100 kPa) | activity coefficient (318.15 K, 100 kPa) | activity coefficient (323.15 K, 100 kPa) | activity coefficient (328.15 K, 100 kPa) | activity coefficient (283.15 K, 100 kPa) | activity coefficient (293.15 K, 100 kPa) | activity coefficient (278.15 K, 99 kPa) | activity coefficient (283.15 K, 99 kPa) | activity coefficient (288.15 K, 99 kPa) | activity coefficient (293.15 K, 99 kPa) | activity coefficient (298.15 K, 99 kPa) | activity coefficient (303.15 K, 99 kPa)
O [water] + Brc1ccccc1 | 367 ± 33 | 311 ± 28 | 264 ± 24 | 226 ± 20 | 189 ± 17 | 164 ± 15 |  |  |  |  |  |  |  |  | 
O [water] + CCOc1ccccc1 | 110 ± 9.6 | 97 ± 8.5 | 87.3 ± 7.6 | 77.7 ± 6.8 | 69.9 ± 6.1 | 62.7 ± 5.4 |  |  |  |  |  |  |  |  | 
O [water] + COc1ccc(Br)cc1 | 119 ± 10 | 106 ± 9.3 | 93.7 ± 8.2 | 83.3 ± 7.3 | 74.1 ± 6.4 | 65.5 ± 5.7 |  |  |  |  |  |  |  |  | 
O [water] + COc1ccccc1 | 95.3 ± 8.3 | 84.4 ± 7.3 | 75.8 ± 6.6 | 68.8 ± 6 | 61.7 ± 5.3 | 55.9 ± 4.8 | 50 ± 4.3 |  |  |  |  |  |  |  | 
O [water] + Cc1ccccc1 |  | 300 ± 27 |  | 214 ± 19 | 184 ± 16 | 155 ± 14 |  | 620 ± 57 | 423 ± 39 |  |  |  |  |  | 
O [water] + ClC=C(Cl)Cl |  |  |  |  |  |  |  |  |  | 1200 ± 130 | 978 ± 100 | 806 ± 84 | 663 ± 69 | 524 ± 54 | 441 ± 45
O [water] + Clc1ccccc1 | 376 ± 34 | 318 ± 29 | 271 ± 24 | 235 ± 21 | 202 ± 18 | 177 ± 16 |  |  |  |  |  |  |  |  | 
O [water] + FC(F)(F)c1ccccc1 | 362 ± 33 | 302 ± 27 | 256 ± 23 | 218 ± 20 | 181 ± 16 | 155 ± 14 |  |  |  |  |  |  |  |  | 
